Measured values taken from patent US12083089B2, “Compositions and methods for stimulating ventilatory and/or respiratory drive” (CASE WESTERN RESERVE UNIVERSITY, priority 2015, dated 2024).
Marks after values point to notes of the source that are not given here.

Legend:
[1] = system: conscious male adult Sprague-Dawley rats; test: Plethysmographic ventilatory responses to test compounds in conscious rats; type: in vivo, rat; details: 500 μmol/kg, i.v., FIG. 2
[2] = system: freely moving adult male Sprague-Dawley rats; test: Whole-body plethysmography of ventilatory parameters in morphine-treated rats
Method: Permissions, rats, surgical procedures and blinding of protocols. All studies were carried out in accordance with the NIH Guide for the Care and Use of Laboratory Animals (NIH Publication No. […]) revised in 1996. The protocols were approved by the Animal Care and Use Committees of the University of Virginia, Case Western Reserve University and Loma Linda University. In addition, all studies were carried out in compliance with the ARRIVE (Animal Research: Reporting of In Vivo Experiments) guidelines. Adult male Sprague-Dawley rats (Harlan, Madison, WI, USA) were implanted with jugular vein catheters under 2% isoflurane anesthesia and some rats received femoral arterial catheters. The rats were allowed at least four days to recover from surgery before use. All arterial catheters were flushed daily with heparin solution (50 units of heparin in phosphate-buffered saline at 0.1 M, pH 7.4). All catheters were flushed with phosphate-buffered saline (0.1 M, pH 7.4) approximately four hours before commencement of the experiments. All studies were performed in a quiet laboratory with relative humidity of 49±2% and room temperature of 21.4±0.2° C. […] Also, please note that the antinociception and ventilatory studies were done in separate groups of rats so as to not complicate the respiratory measurements. The recording (plethysmography, antinociception) sessions and the arterial blood gas assays were done by a particular investigator who administered the opioid, vehicle or test drug such as d-cystine diME. The syringes containing the vehicle or test drug were made up by another investigator, such that the investigator running the actual experiment was blinded to the treatment protocol. In every case, the data files resulting from a particular study were first collated and analyzed by another investigator in the group.
Ventilatory parameters were recorded in freely moving rats by whole body plethysmography (PLY3223; Data Sciences International, St. Paul, MN). The rats were placed in individual chambers and given 60 min to acclimatize to allow true resting ventilatory parameters to be established. […] The rats received another injection of vehicle or 1-NACme (500 μmol/kg, IV) 15 min later and ventilatory parameters were recorded for a further 60 min.
The provided software (Fine Pointe, BUXCO) constantly corrected digitized values for changes in chamber temperature and humidity. Pressure changes associated with the respiratory waveforms were then converted to volumes (i.e., TV, PIF and PEF) using the algorithm of Epstein and colleagues. Specifically, factoring in chamber temperature and humidity, the cycle analyzers filtered the acquired signals, and BUXCO algorithms (Fine Pointe) generated an array of box flow data that identified a waveform segment as an acceptable breath. From that data vector, the minimum and maximum values were determined. Flows at this point were considered to be “box flow” signals.
The recorded data (1 min bins) and derived parameters, Vt/Ti and Response Area (cumulative percent changes from pre-values) were taken for statistical analyses. The pre-drug 1 min bins excluded occasional marked deviations from resting due to movements or scratching by the rats. These exclusions ensured accurate determinations of baseline parameters. The data are presented as mean±SEM. All data unless other-wise stated (see immediately below) were analyzed by one-way or two-way analysis of variance followed by Student's modified t test with Bonferroni corrections for multiple comparisons between means using the error mean square terms from each ANOVA. A value of P<0.05 denoted the initial level of statistical significance that was modified according to the number of comparisons between means.

freely moving rats [3] = test: Arterial blood-gas chemistry and A-a gradient in morphine-treated rats; type: in vivo, rat; details: for deleterious actions of morphine on ABG chemistry and A-a gradient: bolus 500 μmol/kg i.v. after morphine 10 mg/kg i.v., Example 1; for deleterious effects of morphine on ABG chemistry and A-a gradient after prior infusion: prior infusion 14.3 μmol/kg/min, total 500 μmol/kg i.v. over 35 min, morphine 10 mg/kg i.v.
conscious rats = test: Morphine-induced analgesia (paw withdrawal latency assay), Example 1; type: in vivo, rat; details: pretreatment 500 μmol/kg i.v.; morphine 5 mg/kg i.v.
freely moving rats [4] = test: Tail-flick latency (TFL) test; type: in vivo, rat
rats = test: Hemodynamics (preliminary toxicology); type: in vivo, rat; details: 500 μmol/kg, i.v.
Excerpt: FIGS. 11(A-C) illustrate plots showing the effects of test agents (500 μmol/kg, i.v.) on hemodynamic variables. Data are presented mean±SEM (n=8 rats per group).

adult male rats [5] = test: Hargreaves Hind-paw Latency Test, morphine 1 mg/kg; type: in vivo, rat; details: for Hargreaves hind-paw withdrawal latency: FIG. 24 study
adult male rats [6] = test: Von Frey Test, morphine 1 mg/kg; type: in vivo, rat; details: for force needed to initiate hind-paw withdrawal (Von Frey): FIG. 25 study
[7] = two injections of L-NACme 500 μmol/kg IV after morphine 10 mg/kg IV
[8] = 500 μmol/kg IV with morphine sulfate 1.0 mg/kg IV
[9] = 500 μmol/kg IV, tested 20 to 30 min post-injection

## CCOC(=O)[C@H](N)CS [D-CYSee, D-Cysteine ethyl ester]
[1]
  total ventilatory responses recorded over the 30 min post-injection period (% baseline), comparison of efficacy: more efficacious that L-CYSee/L-CYSme
[2]; bolus 500 μmol/kg i.v. (D-CYSee 2×500 μmol/kg) after morphine 10 mg/kg i.v., conscious rats, Example 1
  ventilatory depressant effects of morphine incl. tidal volume/inspiratory time (Vt/Ti): sustained reversal
Freely moving rats [3]
  deleterious actions of morphine on ABG chemistry and A-a gradient: sustained reversal
Conscious rats
  decay of morphine analgesia: decayed more quickly
  initial level of analgesia (paw withdrawal latency) elicited by morphine: did not affect

## N[C@H](CSSC[C@@H](N)C(=O)O)C(=O)O [D-Cystine, D-cystine]
[2]; rat, in vivo
  Frequency: Drug - entire 75 min, % change: +4.5 ± 3.3%
  Frequency: Drug - last 15 min, % change: +14.3 ± 2.8*^,† %
  Frequency: Drug maximum, % change: −1.2 ± 2.1%
  Minute Ventilation: Drug - entire 75 min, % change: −19 ± 5 %
  Minute Ventilation: Drug - last 15 min, % change: −2 ± 4*^,† %
  Minute Ventilation: Drug maximum, % change: −4.4 ± 2.5%
  Tidal Volume: Drug - entire 75 min, % change: −22 ± 4 %
  Tidal Volume: Drug - last 15 min, % change: −12 ± 2*^,† %
  Tidal Volume: Drug maximum, % change: +3.4 ± 2.2%
  immediate effects on Freq, TV or MV: did not elicit immediate effects
  return of Freq, TV and MV toward pre-morphine levels versus vehicle-treated rats: returned toward pre-morphine levels more quickly
Freely moving rats [3]
  deleterious actions of morphine on ABG chemistry and A-a gradient: minor delayed effects
Freely moving rats [3]; freely moving rats, morphine 10 mg/kg IV, then drug 500 μmol/kg IV 15 min later, FIG. 18
  changes in ABG chemistry (pH, pCO2, pO2 and sO2): returned toward pre-injection levels faster
Freely moving rats [3]; freely moving rats, morphine 10 mg/kg IV, then drug 500 μmol/kg IV 15 min later, FIG. 19
  changes in A-a gradient: returned toward pre-injection levels
Freely moving rats [4]; 10 min-post drug (time −10 min), D-cystine 500 μmol/kg IV alone
  Tail-Flick latency: 3.3 ± 0.4 s
Freely moving rats [4]; 20 min post-drug (time 0), D-cystine 500 μmol/kg IV alone
  Tail-Flick latency: 3.2 ± 0.4 s
Freely moving rats [4]; drug 500 μmol/kg IV 20 min before morphine 10 mg/kg IV
  antinociceptive effects of morphine (TFL) in drug-pretreated rats: also enhanced
Freely moving rats [4]; post-morphine - 30 min, D-cystine 500 μmol/kg IV pretreated, morphine 10 mg/kg IV
  Tail-Flick latency: 12 ± 0.0 s
Freely moving rats [4]; post-morphine - 60 min, D-cystine 500 μmol/kg IV pretreated, morphine 10 mg/kg IV
  Tail-Flick latency: 12 ± 0.0 s
Freely moving rats [4]; post-morphine - 90 min, D-cystine 500 μmol/kg IV pretreated, morphine 10 mg/kg IV
  Tail-Flick latency: 12 ± 0.0 s
Freely moving rats [4]; post-morphine - 120 min, D-cystine 500 μmol/kg IV pretreated, morphine 10 mg/kg IV
  Tail-Flick latency (sec): 12 ± 0.0*^,† sec
Freely moving rats [4]; post-morphine - 180 min, D-cystine 500 μmol/kg IV pretreated, morphine 10 mg/kg IV
  Tail-Flick latency (sec): 10.7 ± 0.3*^,† sec
Freely moving rats [4]; post-morphine - 210 min, D-cystine 500 μmol/kg IV pretreated, morphine 10 mg/kg IV
  Tail-Flick latency (sec): 7.4 ± 0.3*^,† sec
Freely moving rats [4]; post-morphine - 240 min, D-cystine 500 μmol/kg IV pretreated, morphine 10 mg/kg IV
  Tail-Flick latency: 5.0 ± 0.3 s
Freely moving rats [4]; post-morphine - 360 min, D-cystine 500 μmol/kg IV pretreated, morphine 10 mg/kg IV
  Tail-Flick latency: 3.5 ± 0.3 s

## N[C@H](CS)C(=O)O [D-cysteine]
Freely moving rats [3]
  deleterious actions of morphine on ABG chemistry and A-a gradient: minimal effects

## CCOC(=O)[C@@H](N)CS [L-CYSee, L-Cysteine ethyl ester]
[2]; prior infusion 14.3 μmol/kg/min, total 500 μmol/kg i.v. over 35 min, conscious rats
  peak inspiratory flow and respiratory drive (Vt/Ti) during infusion: dramatically increased
[2]; prior infusion total 500 μmol/kg i.v. over 35 min, morphine 10 mg/kg i.v.
  subsequent effects of a bolus injection of morphine on ventilation: markedly blunted
[2]; subsequent injection 250 μmol/kg/min as printed, morphine 10 mg/kg i.v.
  effect of a subsequent injection after infusion and morphine: prompt beneficial effects
Freely moving rats [3]
  deleterious effects of morphine on ABG chemistry and A-a gradient after prior infusion: virtually eliminated
rats
  cardiac output and heart rate: decreases
  hemodynamic responses (FIG. 11): minimal responses
  mean arterial blood pressure (MAP): substantial transient decreases
  total peripheral resistance: no changes

## COC(=O)[C@@H](N)CS [L-CYSme, L-cysteine methylester]
[1]
  total ventilatory responses recorded over the 30 min post-injection period (% baseline), comparison of efficacy: as efficacious as L-CYSee

## COC(=O)[C@H](CS)NC(C)=O [L-NACme, L-N-acetylcysteine methylester]
[1]
  total ventilatory responses recorded over the 30 min post-injection period (% baseline), comparison of efficacy: comparatively minor effects
[2]; 2×500 μmol/kg, IV, morphine 10 mg/kg
  effects on morphine-induced changes in Freq, TV and MV: only minor effects
[2]; [7]
  Frequency: Drug - entire 75 min, % change: +11 ± 2 %
  Minute Ventilation: Drug - entire 75 min, % change: −19 ± 4 %
  Tidal Volume: Drug - entire 75 min, % change: −22 ± 3 %

## CCOC(=O)[C@@H](N)CO [L-SERee, L-serine ethyl ester]
[1]
  total ventilatory responses recorded over the 30 min post-injection period (% baseline), comparison of efficacy: minimally active
Freely moving rats [3]
  deleterious effects of morphine on ABG chemistry and A-a gradient after prior infusion: without effect

## COC(=O)[C@@H](N)CSSC[C@H](N)C(=O)OC [L-cystine diME]
Adult male rats [5]; [8]
  effect on the antinociception actions of morphine (Hargreaves): neither thiolester affected
Adult male rats [5]; [9]
  thermal nociception (Hargreaves Testing) when given alone: neither d-cystine diME nor L-cystine diME affected
Adult male rats [5]; L-cystine diME plus morphine
  Hargreaves hind-paw withdrawal latency: 18.5 ± 1.1 s
Adult male rats [5]; given alone, L-cystine diME 500 μmol/kg IV, morphine sulfate 1 mg/kg IV
  Hargreaves hind-paw withdrawal latency: 12.0 ± 0.5 s
Adult male rats [5]; morphine+L-cystine diME
  Hargreaves hind-paw withdrawal latency: 17.2 ± 0.9 s
Adult male rats [6]; [8]
  effect on the antinociception actions of morphine (Von Frey): neither thiolester affected
Adult male rats [6]; [9]
  mechanical allodynia (Von Frey Testing) when given alone: neither d-cystine diME nor L-cystine diME affected
Adult male rats [6]; L-Cystine diME+morphine
  force needed to initiate hind-paw withdrawal (Von Frey): 87.3 ± 4.2 g
Adult male rats [6]; given alone, L-cystine diME 500 μmol/kg IV, morphine 1 mg/kg IV
  force needed to initiate hind-paw withdrawal (Von Frey): 51.0 ± 7.6 g
Adult male rats [6]; morphine+L-Cystine diME
  force needed to initiate hind-paw withdrawal (Von Frey): 86.9 ± 5.2 g
